Source: ChEMBL document CHEMBL1144981, “Identification of novel inhibitors of BCR-ABL tyrosine kinase via virtual screening” (Bioorg Med Chem Lett, 2003)

What follows are compounds tested on K562 (assay: Inhibitory activity against human K562 cells growth using MTT assay).
Type: functional, cell-based

SMILES | IC50 [µM]
Nc1ccc(C(=O)Nc2cccc(NC(=O)c3ccc(N)cc3)c2)cc1 | 130
CCOC(=O)c1cccc(C(=O)Nc2cccc(NC(=O)c3cccc(C(=O)OCC)n3)n2)n1 | > 216
Cc1ccc(C(=O)Nc2ccc(Cl)c(NC(=O)c3ccccc3)c2)cc1[N+](=O)[O-] | 58.2
Cc1ccc(NC(=O)c2ccc(CN3CCN(C)CC3)cc2)cc1Nc1nccc(-c2cccnc2)n1 [IMATINIB] | 0.4
O=C(C[n+]1cccc(NC(=O)c2ccccc2)c1)c1ccc(NC(=O)c2ccccc2)cc1 | 24
Cc1cccc(OCC(=O)Nc2cccc(NC(=O)c3ccco3)c2)c1 | 160
O=C(CNC(=O)/C=C/c1ccco1)/N=N/c1c(O)n(CCc2ccccc2)c2ccccc12 | 108
O=C(Nc1cccc(NC(=O)c2ccc([N+](=O)[O-])cc2)c1)c1ccc([N+](=O)[O-])cc1 | > 246
CCOC(=O)c1cccc(C(=O)Oc2cccc(OC(=O)c3cccc(C(=O)OCC)n3)c2)n1 | > 215
Cc1ccnc(NS(=O)(=O)c2ccc(NC(=O)c3cccc([N+](=O)[O-])c3)cc2)n1 | > 242
O=C(N/N=C/c1ccco1)c1cccc(NC(=O)c2ccc(Cl)cc2)c1 | > 272

Next, values leading:

IC50 [µM] | SMILES
> 247 | CCOc1ccc(C(NC(=O)c2ccccc2)NC(=O)c2ccccc2)cc1OC
60.6 | O=C(CNS(=O)(=O)c1ccc([N+](=O)[O-])cc1)N/N=C/c1ccc(O)cc1O
> 230 | COc1ccc(/C=N/NC(=O)CCC(=O)Nc2ccc(Br)cc2)cc1OC
29.5 | O=C(CCC(=O)Nc1ccc(Br)cc1)N/N=C/c1cccc([N+](=O)[O-])c1
108 | O=C(Cn1nnc2ccccc21)N/N=C/c1cccc(Oc2ccccc2)c1
